Laboratory results as given in patent publication US20010049374A1 (priority 1997, published 2001).
Like-named read-outs stand apart in the source and are kept apart here.

Target: T1, urokinase enzyme Abbokinase (Homo sapiens, UniProt P00749)
T1 construct: purchased Abbott Laboratories, Abbott Park, Ill
Assay: Determination of urokinase inhibition (Abbokinase, chromogenic substrate S-2444)
Type: biochemical

[1] = IC50, Inhibitory potency against urokinase, substrate S-2444 at 200 μM, enzyme 2-3 nM, pH 7.4, 405 nm
[2] = Inhibitory potency against urokinase, substrate S-2444 at 200 μM, enzyme 2-3 nM, pH 7.4, 405 nm, read-out: IC50

Method: Several vials were reconstituted as directed on the vial, aliquoted and stored frozen. The enzyme was further diluted in assay buffer and 10 μl was used in the assay. Enzyme concentration in the assay was 2-3 nM. […] The Spectromax® calculated the reaction rates which were used to calculate percent inhibition of the compounds of this invention versus the reaction rate of the enzyme in the absence of any inhibitor. The Ki's of the inhibitors were calculated from the percent inhibition and previously established Km.

Compound	IC50 [1]	IC50 [2]	also measured
6-(aminoiminomethyl)-N-(1,2,3,4-tetrahydro-6-quinolinyl)-2-naphthalenecarboxamide [Example 147]		0.213 µM	
N=C(N)c1ccc2cc(C#Cc3ccccn3)ccc2c1 [Example 179, 6-(2-pyridinylethynyl)-2-naphthalenecarboximidamide]		1.61 µM	
6-[amino(ethoxycarbonyl)imino]-N-[3-(1-methylethoxy)phenyl]-2-naphthalenecarboxamide [Example 226]		> 30 µM	
1-[(7-Aminoiminomethyl-2-methoxy-1-naphthalenyl)oxy]-3-phenylpropane [Example 23]		4 µM	
N-[7-(aminoiminomethyl)-1-naphthalenyl]-N′-methylurea [Example 157]		3.12 µM	
N=C(N)c1ccc2cc(OCC(=O)O)ccc2c1 [Example 212]		5.09 µM	
6-(aminoiminomethyl)-4-(3-furanyl)-N-phenyl-2-naphthalenecarboxamide [Example 152]		0.083 µM	
1,1-dimethylethyl [[4-[[[6-(aminoiminomethyl)-2-naphathalenyl]amino]carbonyl]phenyl]methyl]carbamate [Example 135]		1.91 µM	
COC(=O)Nc1cc(C(=O)Nc2ccc(CN)cc2)cc2ccc(C(=N)N)cc12 [Example 141, methyl [7-(aminoiminomethyl)-3-[[[4-(aminomethyl)phenyl]amino]carbonyl]-1-naphathalenyl]carbamate]		0.00117 µM	
COC(=O)Nc1cc(C(=O)OC)cc2ccc(C(=N)N)cc12 [Example 26, methyl 6-(aminoiminomethyl)-4-[(methoncarbonyl)amino]-2-naphthalenecarboxylate]		0.04 µM	
ethyl [7-(aminoiminomethyl)-1-naphthalenyl)carbamate [Example 158]		0.09 µM	
6-(aminoiminomethyl)-4-[5-(ethylsulfonyl)-3-furanyl]-N-phenyl-2-naphthalenecarboxamide [Example 227]		0.015 µM	
6-(aminoiminomethyl)-N-(6-methoxy-3-pyridinyl)-2-naphthalenecarboxamide [Example 187]		0.613 µM	
methyl [7-(aminoiminomethyl)-2-methoxy-I-naphthalenyl)carbamate [Example 99]		3.02 µM	
6-(aminoiminomethyl)-N-(3-propoxyphenyl)-2-naphthalenecarboxamide [Example 218]		0.086 µM	
COC(=O)NCc1cccc2ccc(C(=N)N)cc12 [Example 155, methyl [7-(aminoiminomethyl)-1-naphthalenyl]methyl carbamate]		2.33 µM	
4-[[6-(aminoiminomethyl)-2-naphthalenyl]ethynyl]-L-phenylalanine [Example 109]		2.85 µM	
N-[7-(aminoiminomethyl)-1-naphthalenyl)acetamide [Example 15]		2.5 µM	
6-(aminoiminomethyl)-N-(1H-pyrazol-3-yl)-2-naphthalenecarboxamide [Example 191]		0.887 µM	

Compound	IC50 [1]	IC50 [2]	also measured
N=C(N)c1ccc2cc(CCc3ccccc3)ccc2c1 [Example 42, 6-[2-(Phenyl)ethyl]-2-naphthalenecarboximidamide]		2.08 µM	
6-(aminoiminomethyl)-N-(1H-indol-5-yl)-2-naphthalenecarboxamide [Example 205]		0.337 µM	
6-(aminoiminomethyl)-4-[5-(ethylthio)-3-furanyl]-N-phenyl-2-naphthalenecarboxamide [Example 200]		0.037 µM	
6-(aminoiminomethyl)-N-phenyl-4-(tetrahydro-3-furanyl)-2-naphthalenecarboxamide [Example 180]		0.097 µM	
(E)-4-[2-(6-Aminoiminomethyl-2-naphthalenyl)ethenyl]benzenesulfonamide [Example 83]		2.24 µM	
6-[2-(2-Thiomethoxoxyethyl)phenyl]naphthalene-2-carboximidamide [Example 58]		2.53 µM	
N-[7-(aminoiminomethyl)-1-naphthalenyl]benzenemethanesulfonamide [Example 20]		0.803 µM	
7-methoxy-8-(2-pyrimidinylamino)-2-naphthalenecarboximidamide [Example 100]		3.16 µM	
[H]/N=C(/N)c1ccc2cc(C=Cc3ccc(CN(C)C)cc3)ccc2c1 [Example 107, (E)-6-[2-[[4-(dimethylamino)methyl]phenyl]ethenyl]-2-naphthalenecarboximidamide]		2.34 µM	
N-[4-(aminocarbonyl)phenyl]-6-(aminoiminomethyl)-2-naphthalenecarboxamide [Example 184]		0.375 µM	
6-(aminoiminomethyl)-N-[3-(1-ethylpropoxy)phenyl]-2-naphthalenecarboxamide [Example 219]			IC50 (pH 7.4, read-out: IC50): 0.103 µM
N-[7-(aminoiminomethyl)-1-naphthalenyl]-1,3-benzodioxole-5-carboxamide [Example 19]		2.21 µM	
(E)-6-[2-[4-(hydroxymethyl)phenyl]ethenyl]-2-naphthalenecarboximidamide [Example 108]		0.996 µM	
4-[7-(Aminoiminomethyl)-2-methoxy-1-naphthalenyl]dihydro-2(3H)-furanone [Example 85]		1.38 µM	
6-(aminoiminomethyl)-N-(1H-imidazolyl)-2-naphthalenecarboxamide [Example 214]		2.56 µM	
8-(carbonylbenzyloxy)amino-2-naphthalenecarboximidamide [Example 14]		0.33 µM	
COc1ccc2ccc(C(=N)N)cc2c1Oc1c(F)c(F)c(F)c(F)c1F [Example 67, 7-Methoxy-8-pentafluorophenoxy-2-naphthalenecarboximidamide]		2.78 µM	
6-(aminoiminomethyl)-N-(5-pyrimidinyl)-2-naphthalenecarboxamide [Example 208]		0.96 µM	
N-[3-(methyl)phenyl]-6-aminoiminomethyl-2-naphthalenecarboxamide [Example 48]		1.3 µM	

Continued, in another order:

IC50 [1]	Compound	IC50 [2]	also measured
0.035 µM	CSc1cc(-c2cc(C(=O)Nc3ccccc3)cc3ccc(C(=N)N)cc23)co1 [Example 154, 6-(aminoiminomethyl-4-[5-(methylthio)-3-furanyl)]-N-phenyl-2-naphthalenecarboxamide]		
0.87 µM	N=C(N)c1ccc2cc(C#Cc3ccc(CO)cc3)ccc2c1 [Example 126, 6-[[4-(hydroxymethyl)phenyl]ethynyl]-2-naphthalenecarboximidamide]		
0.76 µM	COc1ccc2ccc(C(=N)N)cc2c1Nc1ncccn1 [Example 106, 7-methoxy-8-(2-pyrimidinylamino)-2-naphthalenecarboximidamide]		
0.695 µM	COC(=O)Nc1cc(C(=O)Nc2ccc(CN)cc2)cc2ccc(C(N)=NO)cc12 [Example 170, methyl [3-[[[4-(aminomethyl)phenyl]amino]carbonyl]-7-[4-amino(hydroxyimino)methyl]-1-naphthalenyl]carbamate]		
0.05 µM	COc1ccc2ccc(C(=N)N)cc2c1Nc1ncccn1 [Example 91, 7-Methoxy-8-[2-pyrimidinyl(amino)]-2-naphthalenecarboximidamide]		
14.9 µM	N=C(NO)c1ccc2cccc(Nc3ncccn3)c2c1 [Example 177, N-hydroxy-8-(2-pyrimidinylamino)-2-naphthalenecarboximidamide]		
3.21 µM	[H]/N=C(/N)c1ccc2cc(C=Cc3ccco3)ccc2c1 [Example 81, (E)-6-[2-(2-Furanyl)ethenyl]-2-naphthalenecarboximidamide]		
1.1 µM	N=C(N)c1ccc2cc(C3CC3c3ccc(CO)cc3)ccc2c1 (stereo not shown) [Example 215, 6-[2-[4-(hydroxymethyl)phenyl]-1-cyclopropyl]-2-naphthalenecarboximidamide]		
2.64 µM	N=C(N)c1ccc2cc(NC(=O)C3CCC(CN)CC3)ccc2c1 (stereo not shown) [Example 139, N-[6-(aminoiminomethyl)-2-naphthalenyl]-4-4-(aminomethyl)cyclohexanescarboxamide]		
2.93 µM	CC(C)CC#Cc1ccc2cc(C(=N)N)ccc2c1 [Example 31, 6-(4-Methyl-1-pentynyl)-2-naphthalenecarboximidamide]		
2.96 µM	COc1ccc2ccc(C(=N)N)cc2c1-c1cn[nH]c1 [Example 53, 7-Methoxy-8-(1H-pyrazol-4-yl)-2-naphthalenecarboximidamide]		
2.5 µM	N=C(N)c1ccc2ccc(OCCO)c(I)c2c1 [Example 29, 7-(2-Hydroxyethoxy)-8-iodo-2-naphthalenecarboximidamide]		
9.8 µM	COc1cc2ccc(C(=N)N)cc2c(OC)c1OC [Example 2, 6,7,8-trimethoxy-2-naphthalenecarboximidamide]		
8.92 µM	NC(=NO)c1ccc2cc(C(=O)Nc3ccccc3)cc(Nc3ncccn3)c2c1 [Example 181]		
0.84 µM	[H]/N=C(/N)c1ccc2cc(C=Cc3ccc([C@@H](N)CO)cc3)ccc2c1 [Example 105, (E)-6-[2-[4-(1R-amino-2-hydroxyethyl)phenyl]ethenyl]-2-naphthalenecarboximidamide]		
> 30 µM	CCOC(=O)NC(=N)c1ccc2cc(C3CC3c3ccccc3)ccc2c1 (stereo not shown) [Example 216, N-(ethoxycarbonyl)-6-(2-phenyl-1-cyclopropyl)-2-naphthalenecarboximidamide]		
0.73 µM	[H]/N=C(/N)c1ccc2cccc(C=Cc3ccc4c(c3)OCO4)c2c1 [Example 61, (E)-8-[2-(1,3-Benzodioxol-5-yl)ethenyl]-2-naphthalenecarboximidamide]		
3.4 µM	CSc1ccccc1-c1ccc2cc(C(=N)N)ccc2c1 [Example 57, 6-[2-(Methylthio)phenyl]-2-naphthalenecarboximidamide]		
0.57 µM	COc1ccc(Nc2c(OC)ccc3ccc(C(=N)N)cc23)cc1 [Example 103, 7-methoxy-8-[(4-methoxyphenyl)amino]-2-naphthalenecarboximidamide]		
2.2 µM	CCCOc1ccc2ccc(C(=N)N)cc2c1I [Example 43, 7-Propoxy-8-iodo-2-naphthalenecarboximidamide]		
